Broadly, the IC50 is the concentration at which inhibition is half-maximal.

Assay [1] deals with T1, Human Factor XIIa (hFXIIa) (Homo sapiens, UniProt P00748).
T1 construct: purchased Enzyme Research Laboratories
T1 sequence (P00748 373-615 limits assumed): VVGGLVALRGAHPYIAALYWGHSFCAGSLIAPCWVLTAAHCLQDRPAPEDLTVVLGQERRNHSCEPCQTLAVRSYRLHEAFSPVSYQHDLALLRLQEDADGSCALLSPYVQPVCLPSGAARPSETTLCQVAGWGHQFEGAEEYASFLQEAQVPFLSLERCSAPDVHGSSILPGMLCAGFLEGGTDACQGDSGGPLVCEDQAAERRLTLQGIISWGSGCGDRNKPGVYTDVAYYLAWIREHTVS
T1 sequence (P00748 20-372 partner limits assumed): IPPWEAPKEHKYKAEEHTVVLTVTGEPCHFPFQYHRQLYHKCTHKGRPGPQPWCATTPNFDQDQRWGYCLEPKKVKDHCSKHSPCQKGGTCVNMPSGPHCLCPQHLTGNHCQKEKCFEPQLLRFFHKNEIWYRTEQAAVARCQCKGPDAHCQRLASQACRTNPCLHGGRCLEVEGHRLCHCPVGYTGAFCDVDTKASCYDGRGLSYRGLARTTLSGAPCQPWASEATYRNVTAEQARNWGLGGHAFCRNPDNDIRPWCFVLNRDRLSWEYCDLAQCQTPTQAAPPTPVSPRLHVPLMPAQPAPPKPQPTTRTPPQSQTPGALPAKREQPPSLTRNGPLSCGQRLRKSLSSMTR
Put plainly: Determination of Human Factor XIIa (hFXIIa) inhibition, fluorogenic substrate IC50 assay. The assay is classed as biochemical. To be noted: fluorogenic substrate H-DPro-Phe-Arg-AFC at Km, 25° C., read-out: Human FXIIa IC50. The method, then: Determination of Human Factor XIIa (hFXIIa) inhibition
The Km for the cleavage of the substrate by hFXIIa was determined by standard transformation of the Michaelis-Menten equation, with subsequent inhibition assays performed at substrate Km concentration.

Assay [2] has as its target FXa (Homo sapiens, UniProt P00742). As to the kind of experiment: Related protease inhibition: FXa, fluorogenic substrate. In kind it is biochemical. The conditions noted are these: fluorogenic substrate at Km, 25° C.; H1-H3 = % activity at 40 μM. On the procedure:
Human serine protease enzyme Plasma Kallikrein, KLK1, FXa, Plasmin, Thrombin and Trypsin were assayed for enzymatic activity using an appropriate fluorogenic substrate at Km concentration, FXIa at fixed substrate concentration of 100 μM and various concentrations of the test compound.

Chain of FXa (P00742 235-488 limits assumed): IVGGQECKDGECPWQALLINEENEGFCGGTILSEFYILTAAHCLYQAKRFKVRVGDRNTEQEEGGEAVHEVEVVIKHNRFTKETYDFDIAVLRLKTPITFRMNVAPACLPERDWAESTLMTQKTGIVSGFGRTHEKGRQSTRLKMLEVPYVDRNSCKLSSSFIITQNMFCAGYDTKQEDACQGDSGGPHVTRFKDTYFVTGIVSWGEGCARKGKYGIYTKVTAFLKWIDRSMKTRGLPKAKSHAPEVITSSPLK
Chain of FXa (P00742 41-179 partner limits assumed): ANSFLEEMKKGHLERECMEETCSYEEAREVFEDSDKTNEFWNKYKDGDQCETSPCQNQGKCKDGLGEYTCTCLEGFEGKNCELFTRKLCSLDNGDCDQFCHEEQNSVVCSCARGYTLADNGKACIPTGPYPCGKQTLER

With `CN1CCc2ccc(N3CCc4c(C(=O)NCC5CC5)nn(-c5cccc(C#N)c5)c4C3=O)cc2C1=O` [Example 2005, 1-(3-cyanophenyl)-N-(cyclopropylmethyl)-6-(2-methyl-1-oxo-1,2,3,4-tetrahydroisoquinolin-7-yl)-7-oxo-4,5,6,7-tetrahydro-1H-pyrazolo[3,4-c]pyridine-3-carboxamide], the IC50 in assay [1] was 300 to 1000 nM; in assay [2], greater than 40000 nM.
Consider `CN1CCc2ccc(N3CCc4c(C(=O)NS(C)(=O)=O)nn(-c5cccc(Cl)c5)c4C3=O)cc2C1=O` [Example 1345, 1-(3-chlorophenyl)-6-(2-methyl-1-oxo-1,2,3,4-tetrahydroisoquinolin-7-yl)-N-(methylsulfonyl)-7-oxo-4,5,6,7-tetrahydro-1H-pyrazolo[3,4-c]pyridine-3-carboxamide], for which the figures for the IC50 in assay [1] and in assay [2] were 3000 to 10000 nM and greater than 40000 nM, respectively.
With `O=C(NCc1ccccc1)c1nn(-c2cccc(Cl)c2)c2c1CCN(c1cccc(CN3CCCCC3)c1)C2=O` [Example 1001, N-Benzyl-1-(3-chlorophenyl)-7-oxo-6-(3-(piperidin-1-ylmethyl)phenyl)-4,5,6,7-tetrahydro-1H-pyrazolo[3,4-c]pyridine-3-carboxamide], the IC50 is 100 to 300 nM in assay [1] and greater than 40000 nM in assay [2].
`Cc1cc(CNC(=O)c2nn(-c3cccc(Cl)c3)c3c2CCN(c2ccc4c(c2)C(=O)N(CCCO)CCO4)C3=O)nn1C` [Example 1377, 1-(3-chlorophenyl)-N-((1,5-dimethyl-1H-pyrazol-3-yl)methyl)-6-(4-(3-hydroxypropyl)-5-oxo-2,3,4,5-tetrahydrobenzo[f][1,4]oxazepin-7-yl)-7-oxo-4,5,6,7-tetrahydro-1H-pyrazolo[3,4-c]pyridine-3-carboxamide]: the IC50 in assay [1] was 10 to 100 nM; in assay [2], 3000 to 10000 nM.
As for `Cc1ccncc1CNC(=O)c1nn(-c2cccc(Cl)c2)c2c1CCN(c1cccc(N3CCCCC3=O)c1)C2=O` [Example 1287, 1-(3-chlorophenyl)-N-((4-methylpyridin-3-yl)methyl)-7-oxo-6-(3-(2-oxopiperidin-1-yl)phenyl)-4,5,6,7-tetrahydro-1H-pyrazolo[3,4-c]pyridine-3-carboxamide], the results for the IC50 in assay [1] and in assay [2] were 300 to 1000 nM and 10000 to 40000 nM, respectively.
For `CCNC(=O)c1nn(-c2cccc(Cl)c2)c2c1CCN(c1cccc(N3CCOC3=O)c1)C2=O` [Example 1362, 1-(3-chlorophenyl)-N-ethyl-7-oxo-6-(3-(2-oxooxazolidin-3-yl)phenyl)-4,5,6,7-tetrahydro-1H-pyrazolo[3,4-c]pyridine-3-carboxamide], the results for the IC50 in assay [1] and in assay [2] were 3000 to 10000 nM and greater than 40000 nM, respectively.
As for `CN1CCc2ccc(N3CCc4c(C(=O)NC(CO)C5CCOC5)nn(-c5cccc(Cl)c5)c4C3=O)cc2C1=O` (centres unmarked) [Example 1180, 1-(3-chlorophenyl)-N-(2-hydroxy-1-(tetrahydrofuran-3-yl)ethyl)-6-(2-methyl-1-oxo-1,2,3,4-tetrahydroisoquinolin-7-yl)-7-oxo-4,5,6,7-tetrahydro-1H-pyrazolo[3,4-c]pyridine-3-carboxamide], the IC50 in assay [1] was 300 to 1000 nM; in assay [2], greater than 40000 nM.
In the case of `Cc1nc2c(C(=O)NCC3CC3)nn(-c3cccc(Cl)c3)c2c(=O)n1-c1ccc2c(c1)C(=O)N(CCO)CC2` [Example 3016, 1-(3-chlorophenyl)-N-(cyclopropylmethyl)-6-(2-(2-hydroxyethyl)-1-oxo-1,2,3,4-tetrahydroisoquinolin-7-yl)-5-methyl-7-oxo-6,7-dihydro-1H-pyrazolo[4,3-d]pyrimidine-3-carboxamide], the IC50 was 100 to 300 nM in assay [1] and greater than 40000 nM in assay [2].
`Cc1nc2c(C#N)nn(-c3cccc(Cl)c3)c2c(=O)n1-c1ccc2c(c1)CN(CCO)CC2` [Example 3012, 1-(3-chlorophenyl)-6-(2-(2-hydroxyethyl)-1,2,3,4-tetrahydroisoquinolin-7-yl)-5-methyl-7-oxo-6,7-dihydro-1H-pyrazolo[4,3-d]pyrimidine-3-carbonitrile]: the IC50 in assay [1] fell in the range of 100 to 300 nM; in assay [2], 1000 to 3000 nM.
In the case of `CCNC(=O)c1nn(-c2cccc(Cl)c2)c2c1CCN(c1cccc(N3C(=O)CC[C@H]3C)c1)C2=O` [Example 1397, (R)-1-(3-chlorophenyl)-N-ethyl-6-(3-(2-methyl-5-oxopyrrolidin-1-yl)phenyl)-7-oxo-4,5,6,7-tetrahydro-1H-pyrazolo[3,4-c]pyridine-3-carboxamide], the IC50 in assay [1] is 10000 to 40000 nM; in assay [2], greater than 40000 nM.
On to `Cc1ccncc1CNC(=O)c1nn(-c2cccc(Cl)c2)c2c1CCN(c1ccc3c(c1)CN(CCO)CC31CC1)C2=O` [Example 1144, 1-(3-Chlorophenyl)-6-(2′-(2-hydroxyethyl)-2′,3′-dihydro-1′H-spiro[cyclopropane-1,4′-isoquinolin]-7′-yl)-N-((4-methylpyridin-3-yl)methyl)-7-oxo-4,5,6,7-tetrahydro-1H-pyrazolo[3,4-c]pyridine-3-carboxamide], for which the IC50 in assay [1] is 10 to 100 nM; in assay [2], 1000 to 3000 nM.
The matching figures for `CCOC(=O)c1nn(-c2cccc(Cl)c2)c2c1CCN(c1ccc3c(c1)CN(C)CC3)C2=O` [Example 1013, ethyl 1-(3-chlorophenyl)-6-(2-methyl-1,2,3,4-tetrahydroisoquinolin-7-yl)-7-oxo-4,5,6,7-tetrahydro-1H-pyrazolo[3,4-c]pyridine-3-carboxylate]: 100 to 300 nM and 300 to 1000 nM.
Regarding `O=C(O)c1nn(-c2cccc(Cl)c2)c2c1CCN(c1cccc(CN3CCCCC3)c1)C2=O` [Example 1232, 1-(3-chlorophenyl)-7-oxo-6-(3-(piperidin-1-ylmethyl)phenyl)-4,5,6,7-tetrahydro-1H-pyrazolo[3,4-c]pyridine-3-carboxylic acid], the IC50 was 1000 to 3000 nM in assay [1] and greater than 40000 nM in assay [2].
Take `O=C(NCC1CC1)c1nn(-c2cccc(Cl)c2)c2c1CCN(c1ccc3c(c1)C(=O)N(CCF)CC3)C2=O` [Example 1253, 1-(3-chlorophenyl)-N-(cyclopropylmethyl)-6-(2-(2-fluoroethyl)-1-oxo-1,2,3,4-tetrahydroisoquinolin-7-yl)-7-oxo-4,5,6,7-tetrahydro-1H-pyrazolo[3,4-c]pyridine-3-carboxamide]: the IC50 in assay [1] is 100 to 300 nM; in assay [2], greater than 40000 nM.
On the same counts, the results for `CCN1CCOc2ccc(N3CCc4c(C(=O)NCc5cnccc5C)nn(-c5cccc(Cl)c5)c4C3=O)cc2C1=O` [Example 1318, 1-(3-chlorophenyl)-6-(4-ethyl-5-oxo-2,3,4,5-tetrahydrobenzo[f][1,4]oxazepin-7-yl)-N-((4-methylpyridin-3-yl)methyl)-7-oxo-4,5,6,7-tetrahydro-1H-pyrazolo[3,4-c]pyridine-3-carboxamide] are 10 to 100 nM and 3000 to 10000 nM.
Take `Cc1cn(C)nc1CNC(=O)c1nn(-c2cccc(Cl)c2)c2c(=O)n(-c3ccc4c(c3)CN(CCO)CC4)c(C)nc12` [Example 3005, 1-(3-Chlorophenyl)-N-[(1,4-dimethylpyrazol-3-yl)methyl]-6-[2-(2-hydroxyethyl)-3,4-dihydro-1H-isoquinolin-7-yl]-5-methyl-7-oxo-pyrazolo[4,3-d]pyrimidine-3-carboxamide]: the values for the IC50 in assay [1] and in assay [2] were 10 to 100 nM and 10000 to 40000 nM, respectively.
Consider `Cc1cc(CNC(=O)CN2CCOc3ccc(N4CCc5c(C(=O)NCc6cc(C)n(C)n6)nn(-c6cccc(Cl)c6)c5C4=O)cc3C2=O)nn1C` [Example 1383, 1-(3-chlorophenyl)-N-((1,5-dimethyl-1H-pyrazol-3-yl)methyl)-6-(4-(2-(((1,5-dimethyl-1H-pyrazol-3-yl)methyl)amino)-2-oxoethyl)-5-oxo-2,3,4,5-tetrahydrobenzo[f][1,4]oxazepin-7-yl)-7-oxo-4,5,6,7-tetrahydro-1H-pyrazolo[3,4-c]pyridine-3-carboxamide], for which the values for the IC50 in assay [1] and in assay [2] were 10 to 100 nM and 3000 to 10000 nM, respectively.
For the molecule `CN1CCc2ccc(N3CCc4c(C(=O)NCC5(CO)CC5)nn(-c5cccc(Cl)c5)c4C3=O)cc2C1=O` [Example 1250, 1-(3-chlorophenyl)-N-((1-(hydroxymethyl)cyclopropyl)methyl)-6-(2-methyl-1-oxo-1,2,3,4-tetrahydroisoquinolin-7-yl)-7-oxo-4,5,6,7-tetrahydro-1H-pyrazolo[3,4-c]pyridine-3-carboxamide], the IC50 is 300 to 1000 nM in assay [1] and greater than 40000 nM in assay [2].
For the molecule `O=C(NCc1ccncc1F)c1nn(-c2cccc(Cl)c2)c2c1CCN(c1ccc3c(c1)CN(CCO)CC3)C2=O` [Example 1161, 1-(3-chlorophenyl)-N-((3-fluoropyridin-4-yl)methyl)-6-(2-(2-hydroxyethyl)-1,2,3,4-tetrahydroisoquinolin-7-yl)-7-oxo-4,5,6,7-tetrahydro-1H-pyrazolo[3,4-c]pyridine-3-carboxamide], the values for the IC50 in assay [1] and in assay [2] were 10 to 100 nM and greater than 40000 nM, respectively.

For the origin of these results see patent US20260132132A1, “3A,4,5,6-TETRAHYDRO-1 H-PYRAZOLO[3,4-C]PYRIDIN-7(7AH)-ONE DERIVATIVES AS FACTOR XIIA INHIBITORS” (KALVISTA PHARMACEUTICALS LIMITED, priority 2022, published 2026).
